Assay results reported in US20090130261A1, “Vit-A-Cup” (priority 2007, published 2009).
Where two headings read alike, the source gives them in different places.

Assays:
[1] = compatibility and stability of additives dissolved or suspended in water-based polyacrylic acid carbomer matrixes; conditions: for compatibility in carrier matrix: short term
Excerpt: (§1) The differing chemical characteristics of the various additives require each ingredient or blend of ingredients to be dissolved or suspended in a customized matrix in order to ensure desired delivery of the additive in question. […] A number of characteristics were studied for each desired additive compound or complex, such as the degree of chemical affinity to water, solubility rates in various solvents and at various levels of pH, and degradation rates upon exposure to various environmental factors including oxygen levels in ambient air and temperature, as well as individual tolerance to extreme shifts in pH levels.

[2] = solubility characteristics of additives
Excerpt: as §1
This is accomplished, for example, in a suspension of 3% Xanthan gum and 0.5% Noveon Carbopol Carbomer in distilled water with 20% Ethanol (to aid in speeding the drying time). This solution is then sprayed on to the interior of the cup and allowed to dry. […] Again, this would be delivered in a flavor-masked suspension of 3% Xanthan gum and 0.5% Noveon Carbopol Carbomer.

[3] = dissolved or suspended in water-based polyacrylic acid carbomer matrixes
[4] = require suspension prior to administration to the cup

Row | Compound | stability in carrier matrix [1] | compatibility in carrier matrix [1, 3] | further results
1 | C[C@H](N)C(=O)O [Alanine] | stable | compatible | 
2 | N=C(N)NCCC[C@H](N)C(=O)O [Arginine] | stable | compatible | 
3 | NC(=O)C[C@H](N)C(=O)O [Asparagine] | stable | compatible | 
4 | N[C@@H](CC(=O)O)C(=O)O [Aspartic acid] | stable | compatible | 
5 | O=C(O)CCCC[C@@H]1SC[C@@H]2NC(=O)N[C@@H]21 [Biotin] | stable | compatible | 
6 | C[N+](C)(C)CCO [Choline] | stable |  | 
7 | [Cr] [Chromium] |  |  | solubility [2, 4]: Insoluble
8 | COC1=C(OC)C(=O)C(C/C=C(\C)CC/C=C(\C)CC/C=C(\C)CC/C=C(\C)CC/C=C(\C)CC/C=C(\C)CC/C=C(\C)CC/C=C(\C)CC/C=C(\C)CCC=C(C)C)=C(C)C1=O [Coenzyme Q10] |  |  | solubility [2, 4]: Insoluble
9 | [Cu] [Copper] |  |  | solubility [2]: Insoluble
10 | N[C@@H](CS)C(=O)O [Cysteine] | stable | compatible | 
11 | Nc1nc2ncc(CNc3ccc(C(=O)N[C@@H](CCC(=O)O)C(=O)O)cc3)nc2c(=O)[nH]1 [Folic Acid] |  |  | solubility [2]: Insoluble
12 | N[C@@H](CCC(=O)O)C(=O)O [Glutamic acid] |  | compatible | stability in carrier matrix ([1]; dissolved or suspended in water-based polyacrylic acid carbomer matrixes, longer term): stable
13 | NC(=O)CC[C@H](N)C(=O)O [Glutamine] | stable | compatible | 
14 | NCC(=O)O [Glycine] | stable | compatible | 
15 | N[C@@H](Cc1c[nH]cn1)C(=O)O [Histidine] | stable | compatible | 
16 | CC[C@H](C)[C@H](N)C(=O)O [Isoleucine] | stable | compatible | 
17 | CC(C)C[C@H](N)C(=O)O [Leucine] | stable | compatible | 
18 | NCCCC[C@H](N)C(=O)O [Lysine] | stable | compatible | 
19 | [Mg+2] [Magnesium] |  |  | solubility [2, 4]: Insoluble
20 | [Mn+2] [Manganese] |  |  | solubility [2, 4]: Insoluble
21 | CSCC[C@H](N)C(=O)O [Methionine] | stable | compatible | 
22 | [Mo] [Molybdenum] |  |  | solubility [2]: Insoluble

Row | Compound | stability in carrier matrix [1] | compatibility in carrier matrix [1, 3] | further results
23 | Nc1ccc(C(=O)O)cc1 [PABA, Para-Aminobenzoic Acid] |  |  | solubility [2, 4]: Insoluble
24 | N[C@@H](Cc1ccccc1)C(=O)O [Phenylalanine] | stable | compatible | 
25 | [K+] [Potassium] |  |  | solubility [2]: Insoluble
26 | O=C(O)[C@@H]1CCCN1 [Proline] | stable | compatible | 
27 | [Se] [Selenium] |  |  | solubility [2, 4]: Insoluble
28 | N[C@@H](CO)C(=O)O [Serine] | stable | compatible | 
29 | C[C@@H](O)[C@H](N)C(=O)O [Threonine] | stable | compatible | 
30 | N[C@@H](Cc1c[nH]c2ccccc12)C(=O)O [Tryptophan] | stable | compatible | 
31 | N[C@@H](Cc1ccc(O)cc1)C(=O)O [Tyrosine] | stable | compatible | 
32 | CC(C)[C@H](N)C(=O)O [Valine] | stable | compatible | 
33 | CC1=C(/C=C/C(C)=C/C=C/C(C)=C/C=C/C=C(C)/C=C/C=C(C)/C=C/C2=C(C)CCCC2(C)C)C(C)(C)CCC1 [Vitamin A, Beta-Carotene] | stable | compatible | 
34 | Cc1ncc(C[n+]2csc(CCO)c2C)c(N)n1 [Vitamin B1, Thiamine] | stable | compatible | 
35 | Cc1cc2nc3c(=O)[nH]c(=O)nc-3n(C[C@H](O)[C@H](O)[C@H](O)CO)c2cc1C [Vitamin B2, Riboflavin] | stable | compatible | 
36 | CC(C)(CO)[C@@H](O)C(=O)NCCC(=O)O [Vitamin B5, Pantothenic Acid] | stable | compatible | 
37 | Cc1ncc(CO)c(CO)c1O [Vitamin B6, Pyridoxine] | stable | compatible | 
38 | [Zn] [Zinc] |  |  | solubility [2, 4]: Insoluble
39 | Cyanocobalamin [Vitamin B12] | stable | compatible | 
40 | Iodine |  |  | solubility [2, 4]: Insoluble
41 | Vitamin D |  |  | solubility [2, 4]: Insoluble
42 | Vitamin E |  |  | solubility [2]: Insoluble
43 | Vitamin K |  |  | solubility [2]: Insoluble
